From patent US20260365670A1, “EGFR INHIBITORS AND USES THEREOF” (DIZAL (JIANGSU) PHARMACEUTICAL CO., LTD., priority 2022, published 2026)
pIC50: −log10 of the molar value. Like-named read-outs stand apart in the source and are kept apart here.

Key:
EGFR Exon19Del = molecular target: T1, EGFR Exon19Del (Homo sapiens, UniProt P00533, DEL746-750); assay: Inhibition of EGFR Exon19Del biochemical enzymatic activity (HTRF); settings: EGFR Del19, 1 mM ATP, 1 h, room temperature, read-out: IC50 @Del19
T1 construct: purchased Carna Bio
Procedure, shortened: (§1)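 In a buffer with 5 mM MgCl2, 1 mM MnCl2, 1 mM DTT and 0.01% CHAPS, enzyme turnover of 1 μM biotinylated TK substrate at 1 mM ATP is followed by HTRF after 1 h at room temperature. IC50 is obtained by a four-parameter fit.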

[1] = molecular target: T2, EGFR[T790M/C797S/d746-750] (Homo sapiens, UniProt P00533, C797S/DEL746-750/T790M); assay: Inhibition of EGFR[T790M/C797S/d746-750] biochemical enzymatic activity (HTRF); settings: EGFR T790M-C797S-Del19, 1 mM ATP, 1 h, room temperature, read-out: IC50 (nM) @T790M - C797S - Del19
T2 construct: purchased Carna Bio
Procedure, shortened: as §1

EGFR (d746-750 C797S) = molecular target: T3, EGFR (d746-750 C797S) (Homo sapiens, UniProt P00533, C797S/DEL746-750); assay: Inhibition of EGFR (d746-750 C797S) biochemical enzymatic activity (HTRF); settings: EGFR Del19-C797S, 1 mM ATP, 1 h, room temperature, read-out: IC50 (nM) @Del19-C797S
T3 construct: purchased signalchem
Procedure, shortened: as §1

EGFR (C797S L858R) = molecular target: T4, EGFR (C797S L858R) (Homo sapiens, UniProt P00533, C797S/L858R); assay: Inhibition of EGFR (C797S L858R) biochemical enzymatic activity (HTRF); settings: EGFR L858-C797S, 1 mM ATP, 1 h, room temperature, read-out: IC50 (nM) @L858-C797S
T4 construct: purchased signalchem
Procedure, shortened: as §1

EGFR L858R/T790M = molecular target: T5, EGFR L858R/T790M (Homo sapiens, UniProt P00533, L858R/T790M); assay: Inhibition of EGFR L858R/T790M biochemical enzymatic activity (HTRF); settings: EGFR L858R-T790M, 1 mM ATP, 1 h, room temperature, read-out: IC50 (nM) @L858R-T790M
T5 construct: purchased Carna Bio
Procedure, shortened: as §1

EGFR wild type = molecular target: T6, EGFR wild type (Homo sapiens, UniProt P00533); assay: Inhibition of EGFR wild type biochemical enzymatic activity (HTRF); settings: EGFR WT, 1 mM ATP, 1 h, room temperature, read-out: IC50 (nM) @WT
T6 construct: purchased Carna Bio
Procedure, shortened: as §1

[2] = system: Ba/F3 cells expressing EGFR mutations; assay: Cell proliferation assay, Ba/F3 cells expressing EGFR mutations (CellTiter-Glo, 72 hours); type: cell-based; settings: CellTiter-Glo
Procedure, shortened: (§2)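 Luminescent viable-cell counts were taken on a day 0 plate at dosing and again at endpoint. Proliferation was calculated as (sample − G0)/(DMSO − G0). Seeding was 5000 Ba/F3 or 500 PC-9 cells per well in RPMI1640, followed by overnight attachment and serial compound dilutions. The GI50 was fitted.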

PC-9 = assay: Cell proliferation assay, PC-9 cells (CellTiter-Glo, 72 hours); type: cell-based; settings: PC9 cells, CellTiter-Glo, read-out: PC9 GI50
Procedure, shortened: as §2

A-431 = assay: Cell proliferation GI50, A-431 cells (Table 6); type: cell-based
Method: [Worded in the source for another cell line; this cell line is reported under the same test.] Ba/F3 cells expressing EGFR mutations were seeded in 384-well plates at 5000 cells/well in RPMI1640 medium containing […]. PC-9 at 500 cells/well was seeded into 384-well plates in RPMI1640 medium with 10% FBS. After overnight incubation, the assay plates were dosed with compounds at a series of concentrations. Alongside dosing the assay plates, the day 0 plate was processed using CellTiter-Glo® Luminescent Cell Viability Assay (Promega) to measure the number of viable cells (G0). The assay plates were further incubated for 72 hours and the number of viable cells (G3) was measured. The percentage of proliferation was calculated as: […]=100×(G3 value of sample well−G0 value)/(G3 value of DMSO control−G0 value). The concentration of compound producing 50% proliferation inhibition (GI50) was further calculated in best-fit curves using XLFit software. N/A=not available.

EGFR L858R = molecular target: T7, EGFR L858R (Homo sapiens, UniProt P00533, L858R); assay: Inhibition of EGFR L858R biochemical enzymatic activity (HTRF); settings: 1 mM ATP, 1 h, room temperature, read-out: IC50 (nM) @L858R
T7 construct: purchased Carna Bio
Procedure, shortened: as §1

EGFR Exon19Del/T790M = molecular target: T8, EGFR Exon19Del/T790M (Homo sapiens, UniProt P00533, DEL746-750/T790M); assay: Inhibition of EGFR Exon19Del/T790M biochemical enzymatic activity (HTRF); settings: EGFR Del19-T790M, 1 mM ATP, 1 h, room temperature, read-out: IC50 (nM) @Del19-T790M
T8 construct: purchased Carna Bio
Procedure, shortened: as §1

EGFR[T790M/C797S/L858R] = molecular target: T9, EGFR[T790M/C797S/L858R] (Homo sapiens, UniProt P00533, C797S/L858R/T790M); assay: Inhibition of EGFR[T790M/C797S/L858R] biochemical enzymatic activity (HTRF); settings: EGFR T790M-C797S-L858R, 1 mM ATP, 1 h, room temperature, read-out: IC50 (nM) @T790M- C797S - L858R
T9 construct: purchased Carna Bio
Procedure, shortened: as §1

[3] = BaF3 cells, EGFR DEL19-C797S, read-out: DEL19-C797S/BaF3 GI50
[4] = BaF3 cells, EGFR DEL19-T790-C797S, read-out: DEL19-T790-C797S/BaF3 GI50
[5] = BaF3 cells, EGFR L858R, read-out: L858R/BaF3 GI50
[6] = BaF3 cells, EGFR L858R-C797S, read-out: L858R-C797S/BaF3 GI50
[7] = BaF3 cells, EGFR L858R-T790-C797S, read-out: L858R-T790-C797S/BaF3 GI50
[8] = BaF3 cells, EGFR L858R-T790M, read-out: L858R-T790M/BaF3 GI50
[9] = EGFR DEL19-T790M, read-out: DEL19-T790M GI50
[10] = Mus musculus, BaF3, 72 h, BaF3 cells, EGFR DEL19-C797S, read-out: DEL19-C797S/BaF3 GI50
[11] = Mus musculus, BaF3, 72 h, BaF3 cells, EGFR DEL19-T790-C797S, read-out: DEL19-T790-C797S/BaF3 GI50
[12] = Mus musculus, BaF3, 72 h, BaF3 cells, EGFR L858R, read-out: L858R/BaF3 GI50
[13] = Mus musculus, BaF3, 72 h, BaF3 cells, EGFR L858R-C797S, read-out: L858R-C797S/BaF3 GI50
[14] = Mus musculus, BaF3, 72 h, BaF3 cells, EGFR L858R-T790-C797S, read-out: L858R-T790-C797S/BaF3 GI50
[15] = Mus musculus, BaF3, 72 h, BaF3 cells, EGFR L858R-T790M, read-out: L858R-T790M/BaF3 GI50
[16] = Mus musculus, BaF3, 72 h, EGFR DEL19-T790M, read-out: DEL19-T790M GI50
[17] = Homo sapiens, A-431, A-431 cells

T7 sequence (P00533 25-1210 L858R): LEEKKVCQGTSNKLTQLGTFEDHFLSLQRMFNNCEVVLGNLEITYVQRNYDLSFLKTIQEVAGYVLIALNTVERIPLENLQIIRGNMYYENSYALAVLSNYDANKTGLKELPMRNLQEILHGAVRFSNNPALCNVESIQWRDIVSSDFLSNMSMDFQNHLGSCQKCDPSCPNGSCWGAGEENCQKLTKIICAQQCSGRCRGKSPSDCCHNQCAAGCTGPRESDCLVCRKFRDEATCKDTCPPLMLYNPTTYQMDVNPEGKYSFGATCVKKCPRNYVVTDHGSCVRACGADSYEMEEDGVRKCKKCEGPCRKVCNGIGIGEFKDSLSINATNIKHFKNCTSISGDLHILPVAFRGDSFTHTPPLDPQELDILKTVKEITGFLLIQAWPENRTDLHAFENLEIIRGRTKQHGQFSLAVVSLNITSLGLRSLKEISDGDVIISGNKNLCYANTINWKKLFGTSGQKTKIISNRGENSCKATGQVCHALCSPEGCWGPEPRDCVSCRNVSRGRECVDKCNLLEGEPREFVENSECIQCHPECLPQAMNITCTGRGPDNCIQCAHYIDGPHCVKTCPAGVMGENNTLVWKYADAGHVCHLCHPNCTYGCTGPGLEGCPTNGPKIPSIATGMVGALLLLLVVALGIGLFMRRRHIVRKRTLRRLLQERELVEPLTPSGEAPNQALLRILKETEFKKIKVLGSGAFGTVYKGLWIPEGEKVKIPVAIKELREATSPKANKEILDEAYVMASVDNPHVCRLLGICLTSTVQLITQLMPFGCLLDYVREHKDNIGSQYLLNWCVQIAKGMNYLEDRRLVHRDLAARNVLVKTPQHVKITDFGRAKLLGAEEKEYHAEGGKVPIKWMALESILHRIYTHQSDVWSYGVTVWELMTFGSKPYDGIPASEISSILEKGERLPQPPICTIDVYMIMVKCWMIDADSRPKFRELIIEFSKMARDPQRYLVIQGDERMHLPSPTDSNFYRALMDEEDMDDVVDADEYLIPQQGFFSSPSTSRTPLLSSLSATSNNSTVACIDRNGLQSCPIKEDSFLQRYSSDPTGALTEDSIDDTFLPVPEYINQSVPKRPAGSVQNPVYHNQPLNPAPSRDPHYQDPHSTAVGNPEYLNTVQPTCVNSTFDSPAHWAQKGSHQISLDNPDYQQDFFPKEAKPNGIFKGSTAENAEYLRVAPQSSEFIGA
T6 sequence (P00533 25-1210): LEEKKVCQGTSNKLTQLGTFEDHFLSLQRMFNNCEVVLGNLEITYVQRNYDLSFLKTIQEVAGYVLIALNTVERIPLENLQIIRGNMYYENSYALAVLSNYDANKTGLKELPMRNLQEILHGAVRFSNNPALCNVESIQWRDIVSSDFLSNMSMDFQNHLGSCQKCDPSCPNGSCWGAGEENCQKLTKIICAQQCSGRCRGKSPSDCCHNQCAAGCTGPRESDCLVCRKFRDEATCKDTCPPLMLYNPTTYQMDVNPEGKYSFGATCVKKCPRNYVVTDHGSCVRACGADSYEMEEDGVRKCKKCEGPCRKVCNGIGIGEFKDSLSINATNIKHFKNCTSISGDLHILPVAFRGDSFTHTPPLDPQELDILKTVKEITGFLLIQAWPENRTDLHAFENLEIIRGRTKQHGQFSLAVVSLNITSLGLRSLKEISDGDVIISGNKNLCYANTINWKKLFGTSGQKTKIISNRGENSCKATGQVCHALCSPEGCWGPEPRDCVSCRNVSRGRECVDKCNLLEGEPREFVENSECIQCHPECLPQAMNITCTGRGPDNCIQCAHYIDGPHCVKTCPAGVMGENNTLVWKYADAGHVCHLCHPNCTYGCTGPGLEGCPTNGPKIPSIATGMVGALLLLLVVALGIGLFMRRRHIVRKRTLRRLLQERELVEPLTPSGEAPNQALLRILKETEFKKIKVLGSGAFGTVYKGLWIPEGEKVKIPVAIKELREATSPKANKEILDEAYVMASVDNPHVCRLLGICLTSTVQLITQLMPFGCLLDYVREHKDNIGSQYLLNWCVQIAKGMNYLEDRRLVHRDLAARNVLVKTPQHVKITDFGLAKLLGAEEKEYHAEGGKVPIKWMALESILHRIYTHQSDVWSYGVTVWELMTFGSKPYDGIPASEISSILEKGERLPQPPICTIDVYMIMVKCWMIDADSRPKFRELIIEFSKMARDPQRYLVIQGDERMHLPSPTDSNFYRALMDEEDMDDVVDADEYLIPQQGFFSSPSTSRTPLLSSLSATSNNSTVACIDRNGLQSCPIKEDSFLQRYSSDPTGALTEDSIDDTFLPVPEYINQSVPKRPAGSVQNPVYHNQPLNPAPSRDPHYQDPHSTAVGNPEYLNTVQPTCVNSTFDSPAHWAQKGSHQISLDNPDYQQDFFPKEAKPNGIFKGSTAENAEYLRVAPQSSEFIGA
T4 sequence (P00533 25-1210 C797S/L858R): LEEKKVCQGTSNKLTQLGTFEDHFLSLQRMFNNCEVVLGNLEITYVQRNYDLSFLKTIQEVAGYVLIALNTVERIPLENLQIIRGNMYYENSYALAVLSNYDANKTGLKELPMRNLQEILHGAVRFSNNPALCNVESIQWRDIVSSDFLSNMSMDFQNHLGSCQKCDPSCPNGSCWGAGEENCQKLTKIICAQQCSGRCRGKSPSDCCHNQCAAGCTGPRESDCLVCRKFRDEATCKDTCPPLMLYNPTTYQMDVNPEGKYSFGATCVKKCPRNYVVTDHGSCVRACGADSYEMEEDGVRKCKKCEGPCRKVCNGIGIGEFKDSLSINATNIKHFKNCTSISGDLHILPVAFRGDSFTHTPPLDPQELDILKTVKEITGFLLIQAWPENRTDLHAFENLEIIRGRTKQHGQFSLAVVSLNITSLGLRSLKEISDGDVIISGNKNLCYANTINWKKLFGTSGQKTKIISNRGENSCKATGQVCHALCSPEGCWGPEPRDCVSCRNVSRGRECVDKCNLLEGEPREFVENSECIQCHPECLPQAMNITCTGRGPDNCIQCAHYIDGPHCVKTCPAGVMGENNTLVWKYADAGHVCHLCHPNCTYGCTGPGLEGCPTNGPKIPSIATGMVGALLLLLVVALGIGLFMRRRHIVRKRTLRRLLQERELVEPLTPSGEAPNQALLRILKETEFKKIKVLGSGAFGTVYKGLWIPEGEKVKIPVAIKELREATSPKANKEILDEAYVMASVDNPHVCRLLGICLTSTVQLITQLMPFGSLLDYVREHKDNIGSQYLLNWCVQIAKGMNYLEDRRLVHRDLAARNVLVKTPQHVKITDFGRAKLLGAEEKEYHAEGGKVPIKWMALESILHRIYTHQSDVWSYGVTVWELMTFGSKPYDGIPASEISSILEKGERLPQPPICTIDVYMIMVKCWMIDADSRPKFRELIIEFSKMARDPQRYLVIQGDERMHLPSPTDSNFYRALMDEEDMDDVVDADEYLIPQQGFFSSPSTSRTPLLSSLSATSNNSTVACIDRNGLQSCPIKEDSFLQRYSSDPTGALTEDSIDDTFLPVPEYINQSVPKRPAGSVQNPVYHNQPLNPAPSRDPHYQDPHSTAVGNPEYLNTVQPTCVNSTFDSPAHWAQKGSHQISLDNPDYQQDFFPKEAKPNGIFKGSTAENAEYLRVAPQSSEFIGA
T5 sequence (P00533 25-1210 T790M/L858R): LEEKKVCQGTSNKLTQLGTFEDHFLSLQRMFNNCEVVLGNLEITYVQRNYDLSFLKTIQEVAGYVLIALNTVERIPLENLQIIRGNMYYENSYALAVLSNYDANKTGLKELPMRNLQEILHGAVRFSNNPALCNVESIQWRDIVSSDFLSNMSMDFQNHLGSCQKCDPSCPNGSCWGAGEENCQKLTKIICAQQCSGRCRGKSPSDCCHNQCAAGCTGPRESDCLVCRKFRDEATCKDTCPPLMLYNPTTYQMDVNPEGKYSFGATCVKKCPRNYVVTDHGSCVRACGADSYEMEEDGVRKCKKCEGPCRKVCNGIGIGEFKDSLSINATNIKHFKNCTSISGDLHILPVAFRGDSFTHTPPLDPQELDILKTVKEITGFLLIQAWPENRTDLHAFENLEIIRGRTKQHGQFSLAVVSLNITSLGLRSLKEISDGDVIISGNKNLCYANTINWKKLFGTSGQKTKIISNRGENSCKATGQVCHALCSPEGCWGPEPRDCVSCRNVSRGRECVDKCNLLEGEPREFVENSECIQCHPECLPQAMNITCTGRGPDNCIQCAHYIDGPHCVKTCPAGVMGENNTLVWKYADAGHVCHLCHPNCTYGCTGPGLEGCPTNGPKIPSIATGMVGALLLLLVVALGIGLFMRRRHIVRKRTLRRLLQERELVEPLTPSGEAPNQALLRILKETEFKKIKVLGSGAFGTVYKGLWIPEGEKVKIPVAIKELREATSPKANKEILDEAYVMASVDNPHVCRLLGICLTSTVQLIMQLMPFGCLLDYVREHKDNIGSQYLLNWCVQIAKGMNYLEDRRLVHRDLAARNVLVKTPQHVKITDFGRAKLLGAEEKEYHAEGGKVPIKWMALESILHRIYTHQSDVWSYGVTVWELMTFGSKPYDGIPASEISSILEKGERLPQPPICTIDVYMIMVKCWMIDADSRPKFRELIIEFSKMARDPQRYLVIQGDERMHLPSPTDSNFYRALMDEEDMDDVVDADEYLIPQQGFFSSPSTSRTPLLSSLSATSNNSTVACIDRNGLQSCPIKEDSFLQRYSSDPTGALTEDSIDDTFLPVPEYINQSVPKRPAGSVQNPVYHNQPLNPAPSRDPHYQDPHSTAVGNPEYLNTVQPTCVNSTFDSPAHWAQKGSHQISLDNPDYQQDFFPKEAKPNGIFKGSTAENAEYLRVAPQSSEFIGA

Structure (SMILES)	pIC50 (EGFR Exon19Del)	IC50 [1]	IC50 (EGFR (d746-750 C797S))	IC50 (EGFR (C797S L858R))	IC50 (EGFR L858R/T790M)	IC50 (EGFR wild type)	GI50 [2, 3]	GI50 [2, 4]	GI50 [2, 5]	GI50 [2, 6]	GI50 [2, 7]	GI50 [2, 8]	GI50 [2, 9]	GI50 (PC-9; Homo sapiens, PC-9, 72 h)	GI50 (A-431; A-431 cells)	IC50 (EGFR L858R)	IC50 (EGFR Exon19Del/T790M)	IC50 (EGFR[T790M/C797S/L858R])	GI50 (PC-9)	GI50 [2, 10]	also measured
CCC1CCCOc2c(cnn2C)-c2cc(cn(C)c2=O)C(=O)Nc2nc3ccc(N4CCN(C)CC4)cc3n2C1 (single isomer, unassigned) [Example A16A, 11-Ethyl-5,26-dimethyl-16-(4-methylpiperazin-1-yl)-7-oxa-4,5,13,20,22,26-hexaazapentacyclo[22.3.1.0^{2,6}.0^{13,21}.0^{14,19}]octacosa-1(28),2(6),3,14,16,18,20,24-octaene-23,27-dione]	6.82	115 nM	152 nM	1350 nM	> 5000 nM	> 5000 nM	73 nM	122 nM	182 nM	113 nM	161 nM	165 nM	117 nM	139 nM	95 nM	> 5000 nM	127 nM	> 5000 nM	–	–	–
CCC1CCCOc2c(cnn2C)-c2cc(cn(C)c2=O)C(=O)Nc2nc3ccc(N4CCN(C)CC4)cc3n2C1 (single isomer, unassigned) [Example A16B, 11-Ethyl-5,26-dimethyl-16-(4-methylpiperazin-1-yl)-7-oxa-4,5,13,20,22,26-hexaazapentacyclo[22.3.1.0^{2,6}.0^{13,21}.0^{14,19}]octacosa-1(28),2(6),3,14,16,18,20,24-octaene-23,27-dione]	8.26	10 nM	3.2 nM	16 nM	22 nM	288 nM	5.2 nM	24 nM	21 nM	19 nM	17 nM	53 nM	29 nM	–	664 nM	28 nM	12 nM	14 nM	73 nM	–	–
Cn1ncc2c1OCCN1CC3CCC(C3)(C1)n1c(nc3ccccc31)NC(=O)c1cc-2c(=O)n(C)c1 (single isomer, unassigned) [Example A61A, 15,21-Dimethyl-23-oxa-2,9,11,15,20,21,26-heptaazaheptacyclo[24.4.1.1^{1,28}.1^{13,17}.0^{2,10}.0^{3,8}.0^{18,22}]tritriaconta-3,5,7,9,13,17(33),18(22),19-octaene-12,16-dione]	5.66	> 5000 nM	1660 nM	> 5000 nM	> 5000 nM	> 5000 nM	–	–	–	–	–	–	–	1910 nM	–	> 5000 nM	> 5000 nM	> 5000 nM	–	521 nM	GI50 [2, 11]: 688 nM; GI50 [2, 12]: 1370 nM; GI50 [2, 13]: 1740 nM; GI50 [2, 14]: 1910 nM; GI50 [2, 15]: 2660 nM; GI50 [2, 16]: 913 nM; GI50 (A-431; [17]): 5900 nM
Cn1ncc2c1OCCN1CC3CCC(C3)(C1)n1c(nc3ccc(N4CCOCC4)cc31)NC(=O)c1cc-2c(=O)n(C)c1 (single isomer, unassigned) [Example A62B, 15,21-Dimethyl-5-(morpholin-4-yl)-23-oxa-2,9,11,15,20,21,26-heptaazaheptacyclo[24.4.1.1^{1,28}.1^{13,17}.0^{2,10}.0^{3,8}.0^{18,22}]tritriaconta-3,5,7,9,13,17(33),18(22),19-octaene-12,16-dione]	8.46	2.9 nM	1.4 nM	19 nM	6.3 nM	809 nM	–	–	–	–	–	–	–	10 nM	–	45 nM	2.8 nM	4.3 nM	–	0.64 nM	GI50 [2, 11]: 2.5 nM; GI50 [2, 12]: 3.9 nM; GI50 [2, 13]: 5.2 nM; GI50 [2, 14]: 5.3 nM; GI50 [2, 15]: 8.4 nM; GI50 [2, 16]: 2.6 nM; GI50 (A-431; [17]): 1070 nM
CN1CCN(c2ccc3nc4n(c3c2)C23CCC(CN(CCOc5c(cnn5C)-c5cc(cn(C)c5=O)C(=O)N4)C2)C3)CC1 (single isomer, unassigned) [Example A63B]	9.07	1.1 nM	0.51 nM	1.1 nM	0.92 nM	8 nM	0.67 nM	1.4 nM	1.1 nM	3.1 nM	1.3 nM	8.6 nM	1.9 nM	–	620 nM	1.6 nM	0.94 nM	0.96 nM	5 nM	–	–

The next lines start with results.

pIC50 (EGFR Exon19Del)	IC50 [1]	IC50 (EGFR (d746-750 C797S))	IC50 (EGFR (C797S L858R))	IC50 (EGFR L858R/T790M)	IC50 (EGFR wild type)	GI50 [2, 3]	GI50 [2, 4]	GI50 [2, 5]	GI50 [2, 6]	GI50 [2, 7]	GI50 [2, 8]	GI50 [2, 9]	GI50 (PC-9; Homo sapiens, PC-9, 72 h)	GI50 (A-431; A-431 cells)	IC50 (EGFR L858R)	IC50 (EGFR Exon19Del/T790M)	IC50 (EGFR[T790M/C797S/L858R])	GI50 (PC-9)	GI50 [2, 10]	Structure (SMILES)	also measured
–	–	–	–	–	–	–	–	–	–	–	–	–	15 nM	–	–	–	–	–	5.1 nM	C[C@@H]1CCCOc2c(cnn2C)-c2cc(cn(C)c2=O)C(=O)Nc2nc3ccc(N4CC(N5CCOCC5)C4)cc3n2C1 [Example A45]	GI50 [2, 11]: 16 nM; GI50 [2, 12]: 8.6 nM; GI50 [2, 13]: 14 nM; GI50 [2, 14]: 9.3 nM; GI50 [2, 15]: 29 nM; GI50 [2, 16]: 20 nM; GI50 (A-431; [17]): 245 nM
7.64	9.4 nM	18 nM	619 nM	240 nM	–	19 nM	40 nM	87 nM	120 nM	86 nM	457 nM	63 nM	–	4110 nM	917 nM	8.6 nM	157 nM	146 nM	–	CN1CCN(c2ccc3c(c2)nc2n3C34CCC(CN(CCOc5c(cnn5C)-c5cc(cn(C)c5=O)C(=O)N2)C3)C4)CC1 (centres unmarked) [Example A60, 15,21-dimethyl-6-(4-methylpiperazin-1-yl)-23-oxa-2,9,11,15,20,21,26-heptaazaheptacyclo[24.4.1.1^{1,28}.1^{13,17}.0^{2,10}.0^{3,8}.0^{18,22}]tritriaconta-3,5,7,9,13,17(33),18(22),19-octaene-12,16-dione]	–
